Results published in ChEMBL document CHEMBL1201862, “PubChem BioAssay data set” (2004).
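Growth conditions: 96-well plates. Treatment: test compound, 48 hours, 5 concentrations. Analysis: linear interpolation between bracketing concentrations; unreached endpoints set to highest concentration. Here, GI50 denotes the concentration required for 50% inhibition of growth.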 Activity calls are given as the source filed them. Cut-off read from the data, not from the text of the source: active = GI50 up to about 1.1 µM and inactive = higher.

Experiments:
Experiment in all cases: NCI-60 cell line screen, 48 h
CCRF-CEM = test system: CCRF-CEM
HT-29 = test system: HT-29
Hs-578T = test system: Hs-578T
IGROV-1 = test system: IGROV-1
K562 = test system: K562
KM12 = test system: KM12
NCI-H522 = test system: NCI-H522
NCI/ADR-RES = test system: NCI/ADR-RES
OVCAR-3 = test system: OVCAR-3
PC-3 = test system: PC-3
SK-MEL-2 = test system: SK-MEL-2
SN12C = test system: SN12C
SW-620 = test system: SW-620
U-251 = test system: U-251
UACC-62 = test system: UACC-62
UO-31 = test system: UO-31
COLO 205 = test system: COLO 205
RPMI-8226 = test system: RPMI-8226
SK-OV-3 = test system: SK-OV-3

Measured: GI50

O=C(NCCO)c1ccc(Cl)cc1
inactive: CCRF-CEM 26.1 µM | HT-29 > 100 µM | Hs-578T > 100 µM | IGROV-1 > 100 µM | K562 > 100 µM | KM12 > 100 µM | NCI-H522 > 100 µM | NCI/ADR-RES > 100 µM | OVCAR-3 > 100 µM | PC-3 > 100 µM | SK-MEL-2 > 100 µM | SN12C > 100 µM | SW-620 > 100 µM | U-251 > 100 µM | UACC-62 > 100 µM | UO-31 > 100 µM

COc1ccc(NCc2c(O)ccc3ccccc23)cc1
inactive: COLO 205 22.8 µM | HT-29 21.6 µM | Hs-578T 60.5 µM | IGROV-1 20.4 µM | K562 10.7 µM | KM12 67.1 µM | NCI-H522 14.8 µM | NCI/ADR-RES 40.5 µM | OVCAR-3 27.2 µM | PC-3 17.1 µM | RPMI-8226 24.7 µM | SK-MEL-2 64.1 µM | SK-OV-3 > 100 µM | SN12C 34.4 µM | SW-620 21.4 µM | U-251 28.3 µM | UACC-62 8.09 µM | UO-31 11.3 µM

Cc1c(N=C(S)Nc2ccc(Cl)cc2)c(=O)n(-c2ccccc2)n1C
inactive: CCRF-CEM > 100 µM | COLO 205 > 100 µM | HT-29 > 100 µM | Hs-578T > 100 µM | IGROV-1 > 100 µM | K562 > 100 µM | KM12 > 100 µM | NCI-H522 > 100 µM | NCI/ADR-RES > 100 µM | OVCAR-3 > 100 µM | PC-3 > 100 µM | RPMI-8226 > 100 µM | SK-OV-3 > 100 µM | SW-620 > 100 µM | U-251 > 100 µM | UACC-62 > 100 µM | UO-31 > 100 µM

CCC12CCCN3CCc4c(n(c5ccccc45)C(O)(C(=O)OC)C1)C32 (centres undefined)
inactive: CCRF-CEM > 100 µM | COLO 205 > 100 µM | HT-29 > 100 µM | Hs-578T > 100 µM | IGROV-1 > 100 µM | KM12 > 100 µM | NCI-H522 > 100 µM | NCI/ADR-RES > 100 µM | OVCAR-3 > 100 µM | PC-3 > 100 µM | RPMI-8226 > 100 µM | SK-MEL-2 > 100 µM | SK-OV-3 > 100 µM | SN12C > 100 µM | SW-620 > 100 µM | U-251 > 100 µM | UACC-62 > 100 µM | UO-31 > 100 µM

NCCC1(N)CCNCC1
inactive: CCRF-CEM > 100 µM | COLO 205 > 100 µM | HT-29 > 100 µM | Hs-578T > 100 µM | IGROV-1 > 100 µM | K562 > 100 µM | KM12 > 100 µM | NCI-H522 > 100 µM | NCI/ADR-RES > 100 µM | PC-3 > 100 µM | RPMI-8226 > 100 µM | SK-MEL-2 > 100 µM | SK-OV-3 > 100 µM | SN12C > 100 µM | SW-620 > 100 µM | U-251 > 100 µM | UACC-62 > 100 µM | UO-31 > 100 µM

CC(=N/N=C/c1ccccn1)/C(C)=N/N=C(C)/C(C)=N/N=C(C)/C(C)=N/N=C(C)/C(C)=N\N=C\c1ccccn1
inactive: COLO 205 > 100 µM | HT-29 > 100 µM | Hs-578T > 100 µM | IGROV-1 > 100 µM | K562 > 100 µM | KM12 > 100 µM | NCI-H522 > 100 µM | NCI/ADR-RES > 100 µM | OVCAR-3 > 100 µM | PC-3 > 100 µM | RPMI-8226 > 100 µM | SK-MEL-2 > 100 µM | SK-OV-3 > 100 µM | SN12C > 100 µM | SW-620 > 100 µM | U-251 > 100 µM | UO-31 > 100 µM

COC(=O)C1CC=C(SC(=O)c2ccccc2)N1C(=O)c1ccccc1 (centres undefined)
inactive: COLO 205 > 100 µM | HT-29 > 100 µM | Hs-578T > 100 µM | IGROV-1 > 100 µM | K562 > 100 µM | KM12 > 100 µM | NCI-H522 > 100 µM | NCI/ADR-RES > 100 µM | OVCAR-3 > 100 µM | PC-3 > 100 µM | RPMI-8226 > 100 µM | SK-MEL-2 > 100 µM | SK-OV-3 > 100 µM | SW-620 > 100 µM | U-251 > 100 µM | UACC-62 > 100 µM | UO-31 > 100 µM

O=[N+]([O-])c1ccc(S(=O)(=O)n2c3ccc(Br)cc3c3nc4ccccc4nc32)cc1
inactive: CCRF-CEM 20.7 µM | COLO 205 > 100 µM | HT-29 > 100 µM | Hs-578T 53.6 µM | IGROV-1 > 100 µM | K562 70.8 µM | KM12 > 100 µM | NCI-H522 > 100 µM | NCI/ADR-RES > 100 µM | OVCAR-3 > 100 µM | PC-3 > 100 µM | RPMI-8226 > 100 µM | SK-MEL-2 > 100 µM | SN12C > 100 µM | SW-620 > 100 µM | U-251 > 100 µM | UACC-62 > 100 µM | UO-31 > 100 µM
